The record followed here is patent publication US7989422B2, “Antibacterial agents” (Alchemia Limited, priority 2005, dated 2011).

Structures are written as SMILES.

Holding throughout (assay type): cell-based
For one test, the system named is E. Faecium 51299 VanB. Description: MIC against vancomycin-resistant enterococcus 51299 (VanB), microbroth dilution. To be noted: MIC class; ATCC 51299 VanB. The procedure:
(§1) Testing was conducted to determine the in vitro antimicrobial activity of a series of compounds synthesised by Alchemia Pty Ltd. The antimicrobial activity of each compound was determined at a single concentration (128 μg/mL) in Mueller Hinton (MH) broth against the ATCC type strain of Staphylococcus aureus. […] Compounds showing activity at concentrations up to 32-64 μg/mL in the presence/absence of serum were then tested for MIC activity against a standard set of 5 microorganisms comprising of ATCC type strains of MRSA, Enterococcus faecalis, Enterococcus faecium, VRE and Escherichia coli. CLSI (formerly NCCLS) microbroth dilution technique was used.
(§2) Each compound is initially dissolved in 100 μL of DMSO. Each solution is then diluted further in 0.9 mL of sterile MH broth to give a total volume of 1 mL (1000 μg/mL) This stock solution is then further diluted in MH broth to give a test solution with final concentration of 128 μg/mL using the following formula: 0.5 ml stock in 3.4 ml MH broth
(§3) Each test organism was subcultured from the −70° C. deep freezer onto horse blood agar. The plates were streaked to obtain isolated colonies and incubated at 35° C. in non-CO2 incubator for 24 hours. A second subculture was carried out onto horse blood agar. For each test organism, 1-2 colonies were selected from an 18-24 hour culture and inoculated into 2 ml sterile MH broth. The turbidity was adjusted to 0.5 McFarland standard.
(§4) A 1:10 dilution in MH broth (200 μL in 2 ml MH) of the 0.5 McFarland control was prepared. 5 μL of this diluted solution was used to inoculate the trays.
(§5) The trays were prepared in a similar way as mentioned above and incubated at 35° C. in a non-CO2 incubator for 18-24 hours. The plates were examined for growth after the incubation time.
(§6) After 18-24 hour incubation 5 μL from each well was then inoculated onto horse blood agar and incubated for 18-24 hours at 35° C. in a non-CO2 incubator.
(§7) If the test organism is sensitive to the compound in the broth the growth will be inhibited. Similarly, if the organism grows on the antibiotic containing medium then it is resistant to this particular antibiotic.
In general terms: Broth dilution looks for growth in wells or tubes with falling amounts of substance.

Test [1] deals with Staphylococcus aureus ATCC 25923. Kind of test: MIC against S. aureus, microbroth dilution in MH broth, without or with 5% horse serum. The note with it: MIC class; S. aureus ATCC 25923. The method, then: as §1, §2, §3, §4
100 μL of sterile MH broth was added in columns 2-12. 200 μL of test solution was added in column 1. 100 μL was transferred in column 2 giving a ½ dilution. 100 μL from column 2 was then transferred to column 3 (¼ dilution). This dilution was carried on until column 12. A second tray containing the same test solution was inoculated in a similar manner using sterile MH broth with 5% heat inactivated horse serum. 5 μL of organism solution was then added to each well. The plates were then sealed and incubated at 35° C. in a non-CO2 incubator for 18-24 hours. The plates were examined for growth after the incubation time.
as §7

For test [2], the system named is Staphylococcus aureus (MRSA) ATCC 33591. Description: MIC against MRSA, microbroth dilution. The note with it: MIC class. The method, then: as §1, §2, §3, §4, §5, §6, §7
The subject of test [3] is Enterococcus faecium ATCC 35667. Kind of test: MIC against E. faecium, microbroth dilution. To be noted: MIC class. The procedure:
as §1, §2, §3, §4, §5, §6, §7

The subject of test [4] is Enterococcus faecalis ATCC 29212. Description: MIC against E. faecalis, microbroth dilution. To be noted: MIC class. The procedure:
as §1, §2, §3, §4, §5, §6, §7

For `NC(Cc1ccc(-c2ccccc2)cc1)C(=O)Nc1nc2cc(C(F)(F)F)ccc2n1C1C(CO)OCC(NC(=O)Nc2ccc(Cl)c(C(F)(F)F)c2)C1O` (stereo not shown) [Compound 237], in the test with E. Faecium 51299 VanB, the “E. Faecium 51299 VanB activity” value was “− (“−”: MIC (μg/mL): MIC > 64)”. Also, in test [1], the “S. Aureus 25923 activity” value is “− (“−”: MIC (μg/mL): MIC > 64)”. Moreover, in test [2], the “S. Aureus 33591 MRSA activity” value is “++ (“++”: MIC (μg/mL): MIC ≦ 16)”. In addition, in test [3], the “E. Faecium 35667 activity” value is reported as “− (“−”: MIC (μg/mL): MIC > 64)”. In addition, the “E. Fecalis 29212 activity” value in test [4] is “++ (“++”: MIC (μg/mL): MIC ≦ 16)”.

On to `CCCCCCCCCCCCC(N)C(=O)NC1C(CO)OCC(n2c(O)nc3cc(C(F)(F)F)cc(Cl)c32)C1O` (stereo not shown) [Compound 185], for which the “E. Faecium 51299 VanB activity” value in the test with E. Faecium 51299 VanB is “+ (“+”: MIC (μg/mL): 64 ≧ MIC > 16)”. Moreover, the “S. Aureus 25923 activity” value in test [1] is recorded as “+ (“+”: MIC (μg/mL): 64 ≧ MIC > 16)”. Besides, the “S. Aureus 33591 MRSA activity” value in test [2] is recorded as “++ (“++”: MIC (μg/mL): MIC ≦ 16)”. In test [3], the “E. Faecium 35667 activity” value is “++ (“++”: MIC (μg/mL): MIC ≦ 16)”. Besides, the “E. Fecalis 29212 activity” value in test [4] is “++ (“++”: MIC (μg/mL): MIC ≦ 16)”.

Take `Nc1ccccc1OC1C(NC(=O)Nc2ccc(Cl)c(C(F)(F)F)c2)COC(CO)C1NC(=O)C(N)Cc1ccc(-c2ccccc2)cc1` (single isomer, unassigned) [Compound 71]: the “E. Faecium 51299 VanB activity” value in the test on E. Faecium 51299 VanB was “+ (“+”: MIC (μg/mL): 64 ≧ MIC > 16)”. The “S. Aureus 25923 activity” value in test [1] is on record as “++ (“++”: MIC (μg/mL): MIC ≦ 16)”. Moreover, in test [2], the “S. Aureus 33591 MRSA activity” value is given as “++ (“++”: MIC (μg/mL): MIC ≦ 16)”. The “E. Faecium 35667 activity” value in test [3] was “++ (“++”: MIC (μg/mL): MIC ≦ 16)”. In addition, the “E. Fecalis 29212 activity” value in test [4] is reported as “+ (“+”: MIC (μg/mL): 64 ≧ MIC > 16)”.

Take `CCCCCCCCCCCCC(N)C(=O)NC1C(CO)OCC(n2c(N)nc3cc(C(F)(F)F)ccc32)C1O` (stereo not shown) [Compound 183]: the “E. Faecium 51299 VanB activity” value with E. Faecium 51299 VanB is “− (“−”: MIC (μg/mL): MIC > 64)”. The “S. Aureus 25923 activity” value in test [1] is listed as “+ (“+”: MIC (μg/mL): 64 ≧ MIC > 16)”. In addition, the “S. Aureus 33591 MRSA activity” value in test [2] is “− (“−”: MIC (μg/mL): MIC > 64)”. Also, the “E. Faecium 35667 activity” value in test [3] is given as “++ (“++”: MIC (μg/mL): MIC ≦ 16)”. Also, the “E. Fecalis 29212 activity” value in test [4] is “− (“−”: MIC (μg/mL): MIC > 64)”.

On to `NC(C(=O)Nc1nc2cc(C(F)(F)F)ccc2n1C1C(CO)OCC(NC(=O)Nc2ccc(Cl)c(C(F)(F)F)c2)C1O)c1ccc(-c2ccccc2)cc1` (stereo not shown) [Compound 236], for which the “E. Faecium 51299 VanB activity” value with E. Faecium 51299 VanB is on record as “+ (“+”: MIC (μg/mL): 64 ≧ MIC > 16)”. The “S. Aureus 25923 activity” value in test [1] was “− (“−”: MIC (μg/mL): MIC > 64)”. For the same compound, the “S. Aureus 33591 MRSA activity” value in test [2] is “++ (“++”: MIC (μg/mL): MIC ≦ 16)”. Moreover, the “E. Faecium 35667 activity” value in test [3] was “++ (“++”: MIC (μg/mL): MIC ≦ 16)”. Further, the “E. Fecalis 29212 activity” value in test [4] is “++ (“++”: MIC (μg/mL): MIC ≦ 16)”.

As for `CCCCCCCCCCCCC(N)C(=O)NC1C(CO)OCC(n2cnc3cc(C(F)(F)F)cc(Cl)c32)C1O` (stereo not shown) [Compound 188], the “E. Faecium 51299 VanB activity” value in the test on E. Faecium 51299 VanB is listed as “+ (“+”: MIC (μg/mL): 64 ≧ MIC > 16)”. Also, the “S. Aureus 25923 activity” value in test [1] was “+ (“+”: MIC (μg/mL): 64 ≧ MIC > 16)”. In addition, the “S. Aureus 33591 MRSA activity” value in test [2] was “+ (“+”: MIC (μg/mL): 64 ≧ MIC > 16)”. Besides, the “E. Faecium 35667 activity” value in test [3] is on record as “− (“−”: MIC (μg/mL): MIC > 64)”. The “E. Fecalis 29212 activity” value in test [4] is on record as “+ (“+”: MIC (μg/mL): 64 ≧ MIC > 16)”.

With `O=C(NC1C(CO)OCC(n2cnc3cc(C(F)(F)F)cc(Cl)c32)C1O)c1ccc(-c2ccccc2)cc1` (stereo not shown) [Compound 156], the “E. Faecium 51299 VanB activity” value with E. Faecium 51299 VanB is listed as “− (“−”: MIC (μg/mL): MIC > 64)”. For the same compound, the “S. Aureus 25923 activity” value in test [1] is given as “+ (“+”: MIC (μg/mL): 64 ≧ MIC > 16)”. Moreover, the “S. Aureus 33591 MRSA activity” value in test [2] is “− (“−”: MIC (μg/mL): MIC > 64)”. In test [3], the “E. Faecium 35667 activity” value is recorded as “+ (“+”: MIC (μg/mL): 64 ≧ MIC > 16)”. The “E. Fecalis 29212 activity” value in test [4] is given as “− (“−”: MIC (μg/mL): MIC > 64)”.

In the case of `Nc1ccccc1OC1C(NC(=O)Nc2ccc(Cl)c(C(F)(F)F)c2)COC(CO)C1NC(=O)c1ccc(-c2ccccc2)cc1` (stereo not shown) [Compound 69], in the test on E. Faecium 51299 VanB, the “E. Faecium 51299 VanB activity” value is listed as “− (“−”: MIC (μg/mL): MIC > 64)”. For the same compound, the “S. Aureus 25923 activity” value in test [1] is “+ (“+”: MIC (μg/mL): 64 ≧ MIC > 16)”. Moreover, the “S. Aureus 33591 MRSA activity” value in test [2] was “− (“−”: MIC (μg/mL): MIC > 64)”. The “E. Faecium 35667 activity” value in test [3] is listed as “− (“−”: MIC (μg/mL): MIC > 64)”. For the same compound, in test [4], the “E. Fecalis 29212 activity” value is “− (“−”: MIC (μg/mL): MIC > 64)”.
